Laboratory results from patent publication US7622499B2, “β-Benzyloxyaspartate derivatives with photosensitive groups” (Suntory Holdings Limited, priority 2003, dated 2009).

Key:
[1] = Photolysis with UV lamp, photolysis rate measured by HPLC; format: physicochemical; settings: buffer, pH 7.4
Method: Photolysis was conducted by the known method (Takaoka, K. et al., Bioorganic & Medicinal Chemistry Letters, 13, 965-970, 2003), and the obtained samples were quantified by HPLC or a glutamate uptake assay.
The caged inhibitor was dissolved to 100 μM in a PBS(+) solution [140 mM NaCl, 5 mM KCl, 8 mM Na2HPO4, 1.5 mM KH2PO4, 1 mM CaCl2, 1 mM MgCl2, pH 7.4], and a 300 μL portion of the solution was placed in a quartz cuvette with a 1 mm optical path and situated at a location at 10 cm from a UV lamp (Spectroline ENF-260C/J, product of Spectronics Co.), and then covered with a black box and irradiated with 365 nm UV rays at room temperature for 1-120 minutes. The luminous energy under these conditions was approximately 0.5 J/cm^2 with 10 minutes of irradiation. The irradiated sample was quantified by HPLC.
The sample was subjected to UV irradiation for a prescribed period and then analyzed by HPLC [column: SP-120-5-ODS-AP (Daiso CO.); eluent, CH3CN:H2O:TFA=32:68:0.1 or gradient from CH3CN:H2O:TFA=32:68:0.1 to 50:50:0.1], and the concentration was determined from the ratio of UV absorption at 254 nm with respect to an internal substance (3′,4′-dimethoxyacetophenone, 10 μM). The percentage with respect to the concentration prior to irradiation was calculated and graphed, and the half-life was determined.

EAAT1-5 subtypes = settings: cited from earlier work; for inhibitory activity compared with L-TBOA: prior application of the inventors
glutamate receptor = settings: prior art statement; cited from earlier work

SMILES | half-life (photolysis, decay of caged compound) [1] [min] | inhibitory activity compared with L-TBOA (EAAT1-5 subtypes) | other results
O=C(O)COc1ccc2c(COC(=O)N[C@H](C(=O)O)[C@H](OCc3ccccc3)C(=O)O)cc(=O)oc2c1 [5a, (2S,3S)-3-benzyloxy-N-[7-(carboxymethoxy)coumarin-4-ylmethoxy]carbonylaspartate] | 19 |  | 
N[C@H](C(=O)O)[C@H](OCc1cccc(NC(=O)c2ccc(C(F)(F)F)cc2)c1)C(=O)O [TFB-TBOA] |  | more powerful inhibitory activity than L-TBOA | 
COc1ccc(C(=O)Nc2cccc(CO[C@H](C(=O)O)[C@H](N)C(=O)O)c2)cc1 [PMB-TBOA] |  | more powerful inhibitory activity than L-TBOA | 
N[C@H](C(=O)O)[C@H](OCc1ccccc1)C(=O)O [L-TBOA, L-threo-β-benzyloxyaspartate] |  |  | affinity for glutamate receptor compared to existing inhibitors (glutamate receptor): lower affinity for glutamate receptor compared to existing inhibitors; blocker activity on glutamate transporters (EAAT1-5 subtypes; prior art statement): Particularly powerful blocker activity
O=C(O)COc1cc2oc(=O)cc(COC(=O)N[C@H](C(=O)O)[C@H](OCc3ccccc3)C(=O)O)c2cc1OCC(=O)O [5b, (2S,3S)-3-benzyloxy-N-[6,7-bis(carboxymethoxy)coumarin-4-ylmethoxy]carbonylaspartate] | 7.8 |  | 
